Measurements reported in patent US6930203B2, “Gelling agents or thickeners” (Applied NanoSystems B.V., priority 2001, dated 2005).

Assays:
Format in all cases: physicochemical
[1] = Gelation of N,N′-dialkyladaramides (1%) in mixtures of solvents; set-up: key: g = gelation; s = soluble; p = precipitates; c = crystallizes; ns = not soluble; v = viscous; g* = unstable gel, precipitates; cg = crystalline gel; conditions: 1% gelling agent
From the text: (§1) Preferred examples include aromatic and nonaromatic hydrocarbons, alcohols, ethers, esters, aldehydes, alkanoic acids, epoxides, amines, halogenated hydrocarbons, silicon oils, vegetable oils, phosphoric esters, sulfoxides, water and mixtures thereof. In order to obtain a gel, the gelling agent or thickener is preferably mixed with the composition to be transformed to a gel in an amount of between 0.01 and 50 wt. %, based on the weight of the composition. In a preferred embodiment, the mixture of the gelling agent or thickener and the composition is heated to allow for an even better gel formation or thickening. Typically, the heating will involve raising the temperature of the mixture to about 30-175° C. until a clear solution is obtained. In an alternative embodiment, the gelling agent is first dissolved in a polar or apolar solvent and then added to or sprayed into a composition or solvent to be converted into a gel.
Gelation of N,N′-dialkyladaramides (1%) in Mixtures of Solvents

[2] = Solvent scope of N,N′-dialkylaldaramides (1%) or N,N′-dialkylpentaramides (1%): gelation/solubility behaviour in solvents; set-up: key: g = gelation; s = soluble; p = precipitates; c = crystallizes; ns = not soluble; v = viscous; g* = unstable gel, precipitates; cg = crystalline gel; conditions: 1% gelling agent
From the text: It will be understood that the use of the present gelling agents or thickeners to prepare a gel or to thicken a composition is also encompassed by the invention. As is well known, gelling behavior of compounds or compositions is highly unpredictable. […] Preferably, the gelling phenomenon is thermo reversible.
as §1
Solvent scope of N,N′-dialkylaldaramides (1%) or N,N′-dialkylpentaramides (1%) 1-24 refers to the compounds prepared in Examples 1-23)

[3] = Maximum gelator concentration
From the text: Maximum gelator concentration of 5 (C6-Glu-C6) and 15 (C12-Glu-C12)

[4] = Phase diagram, dropping ball method; conditions: in cyclohexane, silicon oil and p-xylene
Method: FIG. 1 depicts a phase diagram of 5 (C6-Glu-C6) and 15 (C12-Glu-C12) determined with the dropping ball method.
Phase Diagram of 5 (C6-Glu-C6) and 15 (C12-Glu-C12)) Dropping Ball Method)
The phase diagram of 5 (C6-Glu-C6) and 15 (C12-Glu-C12) was determined (see FIG. 1) by using the dropping ball method (A. Takashi, M. Sakai, T. Kato, Polym. J., 12 (1980) 335-341, F. S. Schoonbeek, J. H. van Esch, R. Hulst, R. M. Kellogg, B. L. Feringa, Chem. Eur. J., 6 (2000) 2633-2643).

[5] = Cold gelation: addition of a solution of the gelling agent (10% in NMP, 0.05 ml) to an organic solution (0.5 ml); set-up: key: g = gelation; s = soluble; p = precipitates; c = crystallizes; ns = not soluble; v = viscous; g* = unstable gel, precipitates; cg = crystalline gel
From the text: as §1
Addition of a solution of the gelling agent (10% in NMP, 0.05 ml) to an organic solution (0.5 ml, “cold gelation”)

Gelation in cyclohexane ([1]; Cyclohexane): g | Gelation in Dioxane ([1]; Dioxane): cg | Gelation in H2O ([1]; H2O): ns | Gelation in cyclohexane/dioxane 1:1 ([1]; cyclohexane/dioxane 1:1): cg | Gelation in dioxane/H2O 1:1 ([1]; dioxane/H2O 1:1): g | Gelation in dioxane/H2O 1:2 ([1]; dioxane/H2O 1:2): ns | Gelation in dioxane/H2O 2:1 ([1]; dioxane/H2O 2:1): cg | Gelation in dioxane/H2O 3:1 ([1]; dioxane/H2O 3:1): cg | Gelation/solubility behaviour in 1,2-dichloroethane ([2]; 1,2-dichloroethane): g | Gelation/solubility behaviour in 2-methoxyethanol ([2]; 2-methoxyethanol): c | Gelation/solubility behaviour in 2-octanol ([2]; 2-octanol): s | Gelation/solubility behaviour in 2-propanol ([2]; 2-propanol): c | Gelation/solubility behaviour in Cyclohexane ([2]; Cyclohexane): g | Gelation/solubility behaviour in Dimethylsulfoxide ([2]; Dimethylsulfoxide): cg | Gelation/solubility behaviour in Ethanol ([2]; Ethanol): cg | Gelation/solubility behaviour in Hexadecane ([2]; Hexadecane): ns | Gelation/solubility behaviour in Toluene ([2]; Toluene): g | Gelation/solubility behaviour in Water ([2]; Water): ns | Gelation/solubility behaviour in methyl benzoic acid ([2]; methyl benzoic acid): g | Gelation/solubility behaviour in methyl laurate ([2]; methyl laurate): g | Gelation/solubility behaviour in n-butylacetate ([2]; n-butylacetate): g | Gelation/solubility behaviour in p-xylene ([2]; p-xylene): g | Gelation/solubility behaviour in silicon oil ([2]; silicon oil): g | Maximum gelator concentration in 1,2-dichloroethane ([3]; 1,2-dichloroethane): <50% | Maximum gelator concentration in Toluene ([3]; Toluene): <50% | Maximum gelator concentration in cyclohexane ([3]; cyclohexane): <5% | Maximum gelator concentration in methyl laurate ([3]; methyl laurate): <5% | Maximum gelator concentration in n-butylacetate ([3]; n-butylacetate): <50% | Maximum gelator concentration in silicon oil (Dow Corning 702) ([3]; silicon oil (Dow Corning 702)): <50% | Correlation between Tm^−1 and the logarithm of the mole fraction [4]: linear correlation | Cold gelation in 1,2-dichloroethane ([5]; 0.05 ml added to 0.5 ml 1,2-dichloroethane): c | Cold gelation in Acetone ([5]; 0.05 ml added to 0.5 ml Acetone): cg | Cold gelation in Acetonitril ([5]; 0.05 ml added to 0.5 ml Acetonitril): g | Cold gelation in Chloroform ([5]; 0.05 ml added to 0.5 ml Chloroform): s | Cold gelation in Heptane ([5]; 0.05 ml added to 0.5 ml Heptane): p | Cold gelation in Hexane ([5]; 0.05 ml added to 0.5 ml Hexane): p | Cold gelation in Toluene ([5]; 0.05 ml added to 0.5 ml Toluene): g | Cold gelation in benzaldehyde ([5]; 0.05 ml added to 0.5 ml benzaldehyde): s | Cold gelation in cyclohexane ([5]; 0.05 ml added to 0.5 ml cyclohexane): g | Cold gelation in diethyl ether ([5]; 0.05 ml added to 0.5 ml diethyl ether): g | Cold gelation in ethylacetate ([5]; 0.05 ml added to 0.5 ml ethylacetate): p | Cold gelation in methyl laurate ([5]; 0.05 ml added to 0.5 ml methyl laurate): g | Cold gelation in n-butyl acetate ([5]; 0.05 ml added to 0.5 ml n-butyl acetate): g | Cold gelation in silicon oil ([5]; 0.05 ml added to 0.5 ml silicon oil): g | Cold gelation in tetrahydrofuran ([5]; 0.05 ml added to 0.5 ml tetrahydrofuran): c
SMILES: O=C(NC1CCCCCCCCCCC1)[C@@H](O)[C@@H](O)[C@H](O)[C@@H](O)C(=O)NC1CCCCCCCCCCC1 [Example 15, dicyclododecyl D-glucaramide]
